This test deals with MLKL phosphorylation in HT29-L23 human colorectal adenocarcinoma cells. In words: MLKL phosphorylation high-content assay. It counts as cell-based.
The mark [1] stands for this setting: Homo sapiens, 6 h, HT29-L23 cells, necroptosis induced with TNFα, SMAC mimetic and Z-VAD, 6 h, maximal inhibition defined by Nec1s, read-out: pMLKL IC50.
[2] abbreviates: Homo sapiens, Table 23, representative compounds from WO2018/148626, read-out: pMLKL IC50.
The mark [3] stands for this setting: HT29-L23 cells, necroptosis induced with TNFα, SMAC mimetic and Z-VAD, 6 h, maximal inhibition defined by Nec1s, read-out: pMLKL IC50.

Like-named read-outs stand apart in the source and are kept apart here.

For orientation: IC50 means the point on the concentration scale where inhibition reaches its midpoint. In the case of `Nc1nc2cc(-c3ccc(Cl)c(C(=O)NCC(F)(F)[C@H](F)c4ccc(F)cc4)c3F)ccn2n1` [Example 288, (R)-3-(2-amino-[1,2,4]triazolo[1,5-a]pyridin-7-yl)-6-chloro-2-fluoro-N-(2,2,3-trifluoro-3-(4-fluorophenyl)propyl)benzamide], the IC50 under setting [1] is 1 nM.
As for `COc1ncc(-c2ccn3nc(N)nc3c2)cc1C(=O)NC(C)CCc1ccccc1` (stereo not drawn) [Example 101], under setting [2], the IC50 is 82 nM.
As for `CC(CCNC(=O)c1cccc(-c2ccn3nc(N)nc3c2)c1)c1ccccc1` (stereo not drawn) [Example 316, 3-(2-amino-[1,2,4]triazolo[1,5-a]pyridin-7-yl)-N-(3-phenylbutyl)benzamide], the IC50 by setting is: (Homo sapiens, 6 h, read-out: pMLKL IC50, HT29-L23 cells, necroptosis induced with TNFα, SMAC mimetic and Z-VAD, 6 h, maximal inhibition defined by Nec1s) 25 nM; (Homo sapiens, read-out: pMLKL IC50, Table 22, compounds of the present invention) 25 nM.
Consider `Cc1c(C(=O)NCC(F)(F)C(O)c2ccc(Cl)cc2)cc(-c2ccn3nc(N)nc3c2)c(F)c1F` (single isomer, unassigned) [Example 105, 5-(2-amino-[1,2,4]triazolo[1,5-a]pyridin-7-yl)-N-(3-(4-chlorophenyl)-2,2-difluoro-3-hydroxypropyl)-3,4-difluoro-2-methylbenzamide], for which the IC50 under setting [3] turned out to be 0.5 nM.
For the compound `Cc1c(C(=O)NCC(F)(F)C(O)c2ccc(Cl)cc2)cc(-c2ccn3nc(N)nc3c2)c(F)c1F` (single isomer, unassigned) [Example 104, 5-(2-amino-[1,2,4]triazolo[1,5-a]pyridin-7-yl)-N-(3-(4-chlorophenyl)-2,2-difluoro-3-hydroxypropyl)-3,4-difluoro-2-methylbenzamide], the IC50 under setting [1] amounted to 0.3 nM.
The same measure, in the same setting: under `Cc1ccc(-c2ccn3nc(N)nc3c2)c(F)c1C(=O)NCC(F)(F)C(C)(O)c1ccc(F)cc1` (single isomer, unassigned) [Example 61, 3-(2-amino-[1,2,4]triazolo[1,5-a]pyridin-7-yl)-N-(2,2-difluoro-3-(4-fluorophenyl)-3-hydroxybutyl)-2-fluoro-6-methylbenzamide] stands 0.8 nM; under `Nc1nc2cc(-c3cc(C(=O)NCC(F)(F)C(O)c4ccc(F)cc4)c(Cl)cc3Cl)ccn2n1` (racemic) [Example 127], 9.7 nM; under `Nc1nc2cc(-c3ccc(F)c(C(=O)NCC(F)(F)[C@@H](F)c4ccc(F)cc4)c3F)ccn2n1` [Example 285, (S)-3-(2-amino-[1,2,4]triazolo[1,5-a]pyridin-7-yl)-2,6-difluoro-N-(2,2,3-trifluoro-3-(4-fluorophenyl)propyl)benzamide], 0.8 nM.
Regarding `Cc1ccc(-c2ccn3nc(N)nc3c2)c(F)c1C(=O)NCC(C)(O)C(=O)c1ccc(F)cc1` (stereo not drawn) [Example 279, 3-(2-amino-[1,2,4]triazolo[1,5-a]pyridin-7-yl)-2-fluoro-N-(3-(4-fluorophenyl)-2-hydroxy-2-methyl-3-oxopropyl)-6-methylbenzamide], the IC50 was found to be 8.3 nM under setting [1] and 8.3 nM (Homo sapiens, Table 22, compounds of the present invention, read-out: pMLKL IC50).
Turning to `[2H]C([2H])([2H])C(O)(c1ccc(F)cc1)C(F)CNC(=O)c1c(Cl)ccc(-c2ccn3nc(N)nc3c2)c1F` (single isomer, unassigned) [Example 240, 3-(2-amino-[1,2,4]triazolo[1,5-a]pyridin-7-yl)-6-chloro-2-fluoro-N-(2-fluoro-3-(4-fluorophenyl)-3-hydroxybutyl-4,4,4-d3)benzamide], under setting [3], the half-inhibitory concentration (IC50) came out at 3.1 nM.
`Cc1c(C(=O)NCC(F)(F)C(O)c2ccc(F)cc2)cc(-c2ccn3nc(N)nc3c2)c(F)c1F` (single isomer, unassigned) [Example 107, 5-(2-amino-[1,2,4]triazolo[1,5-a]pyridin-7-yl)-N-(2,2-difluoro-3-(4-fluorophenyl)-3-hydroxypropyl)-3,4-difluoro-2-methylbenzamide]: the 50% inhibitory concentration (IC50) under setting [3] was determined as 0.4 nM.
Turning to `C[C@](O)(c1ccc(F)cc1)[C@H](F)CNC(=O)c1c(Cl)ccc(-c2ccn3nc(N)nc3c2)c1F` [Example 212, 3-(2-amino-[1,2,4]triazolo[1,5-a]pyridin-7-yl)-6-chloro-2-fluoro-N-((2R,3S)-2-fluoro-3-(4-fluorophenyl)-3-hydroxybutyl)benzamide], the half-inhibitory concentration (IC50) under setting [1] was 0.8 nM.
As to `Nc1nc2cc(-c3ccc(C(F)(F)F)c(C(=O)NCC(F)(F)[C@H](F)c4ccc(F)cc4)c3F)ccn2n1` [Example 289, (R)-3-(2-amino-[1,2,4]triazolo[1,5-a]pyridin-7-yl)-2-fluoro-N-(2,2,3-trifluoro-3-(4-fluorophenyl)propyl)-6-(trifluoromethyl)benzamide], the 50% inhibitory concentration (IC50) under setting [1] amounted to 1.7 nM.
Still for that read-out and setting: under `C[C@](O)(c1ccc(F)cc1)[C@@H](F)CNC(=O)c1c(Cl)ccc(-c2ccn3nc(N)nc3c2)c1F` [Example 209, 3-(2-amino-[1,2,4]triazolo[1,5-a]pyridin-7-yl)-6-chloro-2-fluoro-N-((2S,3S)-2-fluoro-3-(4-fluorophenyl)-3-hydroxybutyl)benzamide] stands 80 nM; under `CCc1ccc(-c2ccn3nc(N)nc3c2)c(F)c1C(=O)NCC(F)(F)C(O)c1ccc(F)cc1` (single isomer, unassigned) [Example 120, 3-(2-amino-[1,2,4]triazolo[1,5-a]pyridin-7-yl)-N-(2,2-difluoro-3-(4-fluorophenyl)-3-hydroxypropyl)-6-ethyl-2-fluorobenzamide], 1.4 nM.
Still for that read-out and setting: the same measure for `Nc1nc2cc(-c3ccc(F)c(C(=O)NCC(F)(F)[C@H](F)c4ccc(F)cc4)c3F)ccn2n1` [Example 287, (R)-3-(2-amino-[1,2,4]triazolo[1,5-a]pyridin-7-yl)-2,6-difluoro-N-(2,2,3-trifluoro-3-(4-fluorophenyl)propyl)benzamide]: 0.8 nM.
The same measure, in the same setting: the same measure for `C[C@@](O)(c1ccc(F)cc1)[C@H](F)CNC(=O)c1c(Cl)ccc(-c2ccn3nc(N)nc3c2)c1F` [Example 210, 3-(2-amino-[1,2,4]triazolo[1,5-a]pyridin-7-yl)-6-chloro-2-fluoro-N-((2R,3R)-2-fluoro-3-(4-fluorophenyl)-3-hydroxybutyl)benzamide]: 2.5 nM.
Turning to `CCC(O)(c1ccc(F)cc1)C(F)(F)CNC(=O)c1c(Cl)ccc(-c2ccn3nc(N)nc3c2)c1F` (single isomer, unassigned) [Example 313, 3-(2-amino-[1,2,4]triazolo[1,5-a]pyridin-7-yl)-6-chloro-N-(2,2-difluoro-3-(4-fluorophenyl)-3-hydroxypentyl)-2-fluorobenzamide], under setting [3], the IC50 worked out at 3.8 nM.
On to `C[C@@](O)(c1ccc(F)cc1)[C@@H](F)CNC(=O)c1c(Cl)ccc(-c2ccn3nc(N)nc3c2)c1F` [Example 211, 3-(2-amino-[1,2,4]triazolo[1,5-a]pyridin-7-yl)-6-chloro-2-fluoro-N-((2S,3R)-2-fluoro-3-(4-fluorophenyl)-3-hydroxybutyl)benzamide], for which the IC50 under setting [1] is 45 nM.
With `Cc1c(C(=O)NCC(F)(F)C(O)c2ccc(F)cc2)cc(-c2ccn3nc(N)nc3c2)c(F)c1F` (single isomer, unassigned) [Example 106, 5-(2-amino-[1,2,4]triazolo[1,5-a]pyridin-7-yl)-N-(2,2-difluoro-3-(4-fluorophenyl)-3-hydroxypropyl)-3,4-difluoro-2-methylbenzamide], the IC50 under setting [1] came out at 0.5 nM.
For the compound `[2H]C([2H])([2H])C(O)(c1ccc(F)cc1)C(F)CNC(=O)c1c(Cl)ccc(-c2ccn3nc(N)nc3c2)c1F` (single isomer, unassigned) [Example 237, 3-(2-amino-[1,2,4]triazolo[1,5-a]pyridin-7-yl)-6-chloro-2-fluoro-N-(2-fluoro-3-(4-fluorophenyl)-3-hydroxybutyl-4,4,4-d3)benzamide], the IC50 under setting [3] stood at 86 nM.
Still for that read-out and setting: the same measure for `CCC(O)(c1ccc(F)cc1)C(F)(F)CNC(=O)c1c(Cl)ccc(-c2ccn3nc(N)nc3c2)c1F` (single isomer, unassigned) [Example 314, 3-(2-amino-[1,2,4]triazolo[1,5-a]pyridin-7-yl)-6-chloro-N-(2,2-difluoro-3-(4-fluorophenyl)-3-hydroxypentyl)-2-fluorobenzamide]: 17 nM.
Consider `CC(CCNC(=O)c1cc(-c2ccn3nc(N)nc3c2)cnc1Cl)c1ccccc1` (stereo not drawn) [Example 170], for which the IC50 under setting [2] came out at 48 nM.
Turning to `Cc1c(F)cc(-c2ccn3nc(N)nc3c2)cc1C(=O)NCCC(C)(O)c1ccccc1` (stereo not drawn) [Example 96, 5-(2-amino-[1,2,4]triazolo[1,5-a]pyridin-7-yl)-3-fluoro-N-(3-hydroxy-3-phenylbutyl)-2-methylbenzamide], the IC50 under setting [1] was 39 nM.
For `[2H]C([2H])([2H])C(O)(c1ccc(F)cc1)C(F)CNC(=O)c1c(C(F)F)ccc(-c2ccn3nc(N)nc3c2)c1F` (single isomer, unassigned) [Example 197, 3-(2-amino-[1,2,4]triazolo[1,5-a]pyridin-7-yl)-6-(difluoromethyl)-2-fluoro-N-(2-fluoro-3-(4-fluorophenyl)-3-hydroxybutyl-4,4,4-d3)benzamide], the IC50 under setting [3] was 0.3 nM.
Still for that read-out and setting: under `Nc1nc2cc(-c3ccc(Cl)c(C(=O)NCC(F)(F)C(O)c4ccc(Cl)c(Cl)n4)c3F)ccn2n1` (single isomer, unassigned) [Example 271] stands 1.8 nM.
Regarding `Nc1nc2cc(-c3ccc(C(F)(F)F)c(C(=O)NCC(F)(F)[C@@H](F)c4ccc(F)cc4)c3F)ccn2n1` [Example 286, (S)-3-(2-amino-[1,2,4]triazolo[1,5-a]pyridin-7-yl)-2-fluoro-N-(2,2,3-trifluoro-3-(4-fluorophenyl)propyl)-6-(trifluoromethyl)benzamide], under setting [1], the IC50 came to 1 nM.
The same measure, in the same setting: under `[2H]C([2H])([2H])c1ccc(-c2ccn3nc(N)nc3c2)c(F)c1C(=O)NC[C@@H](F)[C@](C)(O)c1ccc(F)cc1` [Example 214, 3-(2-amino-[1,2,4]triazolo[1,5-a]pyridin-7-yl)-2-fluoro-N-((2R,3R)-2-fluoro-3-(4-fluorophenyl)-3-hydroxybutyl)-6-(methyl-d3)benzamide] stands 0.9 nM.
